Results: ChEMBL document CHEMBL1201862, “PubChem BioAssay data set” (2004)
Where “and” joins values, the source holds several entries; their conditions need not be identical. Equal values may be shown once.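 Step 1: Grow cells in 96-well plates. Step 2: Expose to compound for 48 hours at 5 concentrations. Step 3: Interpolate endpoints linearly; if unreached, use highest concentration. GI50 = concentration required for 50% inhibition of growth.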 Calls of active or inactive are those of the source. Cut-off read from the data, not from the text of the source: active = GI50 up to about 1.1 µM and inactive = higher.

Columns and labels:
Assay in all cases: DTP human tumour cell line panel, 48 h
[1] = tested on: CCRF-CEM
[2] = tested on: Hs-578T
[3] = tested on: M14
[4] = tested on: HCT-15
[5] = tested on: HCT-116
[6] = tested on: NCI-H460
[7] = tested on: HL-60
[8] = tested on: MCF7
[9] = tested on: MOLT-4
[10] = tested on: LOX IMVI
[11] = tested on: MDA-MB-435
[12] = tested on: BT-549
[13] = tested on: SF-295
[14] = tested on: MDA-MB-231
[15] = tested on: SNB-19
[16] = tested on: UACC-62

| SMILES | GI50 [1] | GI50 [2] | GI50 [3] | GI50 [4] | GI50 [5] | GI50 [6] | GI50 [7] | GI50 [8] | GI50 [9] | GI50 [10] | GI50 [11] | GI50 [12] | GI50 [13] | GI50 [14] | GI50 [15] | GI50 [16] |
| --- | --- | --- | --- | --- | --- | --- | --- | --- | --- | --- | --- | --- | --- | --- | --- | --- |
| CC(=O)O[C@H]1CC2C(C3CC[C@H](C(C)CCC(N)=O)[C@]31C)[C@H](OC(C)=O)C[C@@H]1CC3(CC[C@]21C)OOC1(CCC(C)CC1)OO3 (some centres not stated) | 1.52 µM (inactive) | 2.07 µM (inactive) and 2.38 µM (inactive) | 2.22 µM (inactive) and 2.94 µM (inactive) | 1.93 µM | 1.94 µM (inactive) and 2.26 µM (inactive) | 1.62 µM (inactive) and 2.28 µM (inactive) | 2.32 µM (inactive) and 2.93 µM (inactive) | 2.04 µM (inactive) and 2.65 µM (inactive) | 1.72 µM (inactive) and 1.47 µM (inactive) | 1.83 µM (inactive) and 1.92 µM (inactive) | 2.06 µM (inactive) and 1.61 µM (inactive) | 2.11 µM (inactive) and 1.72 µM (inactive) | 2.99 µM (inactive) and 2 µM (inactive) | 2.21 µM (inactive) | – | – |
| Nc1nc2c(ncn2Cc2ccc(CO)cc2)c(=O)[nH]1 | > 100 µM (inactive) | > 100 µM (inactive) | > 100 µM (inactive) | > 100 µM | > 100 µM (inactive) | > 100 µM (inactive) | 4.42 µM (inactive) | > 100 µM (inactive) | > 100 µM (inactive) | > 100 µM (inactive) | > 100 µM (inactive) | > 100 µM (inactive) | > 100 µM (inactive) | > 100 µM (inactive) | > 100 µM (inactive) | > 100 µM (inactive) |
| OCCSCC(O)Cn1cnc2c(O)nc(Nc3ccccc3)nc21 (configuration not stated) | > 100 µM (inactive) | > 100 µM (inactive) | > 100 µM (inactive) | > 100 µM | > 100 µM (inactive) | > 100 µM (inactive) | > 100 µM (inactive) | > 100 µM (inactive) | > 100 µM (inactive) | > 100 µM (inactive) | > 100 µM (inactive) | > 100 µM (inactive) | > 100 µM (inactive) | > 100 µM (inactive) | > 100 µM (inactive) | > 100 µM (inactive) |
| CCOC(=O)c1c(CN2CCOCC2)n(Cc2ccccc2)c2c1cc(O)c1nc(C)c(C)nc12 | > 100 µM (inactive) | 36.1 µM (inactive) | > 100 µM (inactive) | 57 µM | 38.3 µM (inactive) | 42 µM (inactive) | > 100 µM (inactive) | 16.7 µM (inactive) | 71 µM (inactive) | 46.6 µM (inactive) | > 100 µM (inactive) | 11.5 µM (inactive) | 56.5 µM (inactive) | 85.1 µM (inactive) | 38.2 µM (inactive) | 38.7 µM (inactive) |
